The text below walks through data of ChEMBL document CHEMBL3861946 (Medchemcomm, 2016).

Where a SMILES comes first, the peptide text is derived from it. The star is where a group is joined. Cbz = O=C(OCc1ccccc1)*; CH2F = FC*

Data set [1] addresses T1, Caspase-3 (Homo sapiens, UniProt P42574).
T1 sequence (P42574 whole entry): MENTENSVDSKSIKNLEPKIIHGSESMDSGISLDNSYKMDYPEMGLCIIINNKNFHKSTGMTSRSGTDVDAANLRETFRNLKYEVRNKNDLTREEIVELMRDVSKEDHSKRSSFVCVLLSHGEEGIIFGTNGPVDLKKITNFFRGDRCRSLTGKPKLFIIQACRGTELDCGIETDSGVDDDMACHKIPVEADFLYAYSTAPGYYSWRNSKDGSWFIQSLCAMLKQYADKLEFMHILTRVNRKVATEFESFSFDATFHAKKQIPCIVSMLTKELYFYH
The experiment in a line: Inhibition of recombinant human caspase-3 using Ac-DEVD-AMC as substrate preincubated for 10 mins followed by substrate addition measured after 60 mins by fluorometric assay.

Data set [2] has as its target T2, Amine oxidase [flavin-containing] A (Homo sapiens, UniProt P21397).
T2 sequence (P21397 whole entry): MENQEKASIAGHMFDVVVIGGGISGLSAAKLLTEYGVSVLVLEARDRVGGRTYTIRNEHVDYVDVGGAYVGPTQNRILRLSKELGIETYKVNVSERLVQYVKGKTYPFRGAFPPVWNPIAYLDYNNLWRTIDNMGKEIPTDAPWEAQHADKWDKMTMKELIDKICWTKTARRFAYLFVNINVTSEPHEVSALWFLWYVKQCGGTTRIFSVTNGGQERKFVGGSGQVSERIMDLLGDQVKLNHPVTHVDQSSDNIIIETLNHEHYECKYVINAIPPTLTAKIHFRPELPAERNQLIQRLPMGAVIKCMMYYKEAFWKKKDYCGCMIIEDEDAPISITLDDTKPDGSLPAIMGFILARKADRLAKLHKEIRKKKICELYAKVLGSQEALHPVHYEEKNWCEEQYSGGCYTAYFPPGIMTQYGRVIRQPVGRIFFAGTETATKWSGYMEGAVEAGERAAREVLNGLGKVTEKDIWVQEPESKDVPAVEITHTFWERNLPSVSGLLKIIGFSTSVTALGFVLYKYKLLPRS
The experiment in a line: Inhibition of recombinant human MAOA using kynuramine as substrate assessed as decrease in formation of 4-hydroxyquinoline incubated for 20 mins by fluorescence assay.

Data set [3] deals with T3, Amine oxidase [flavin-containing] B (Homo sapiens, UniProt P27338).
T3 sequence (P27338 whole entry): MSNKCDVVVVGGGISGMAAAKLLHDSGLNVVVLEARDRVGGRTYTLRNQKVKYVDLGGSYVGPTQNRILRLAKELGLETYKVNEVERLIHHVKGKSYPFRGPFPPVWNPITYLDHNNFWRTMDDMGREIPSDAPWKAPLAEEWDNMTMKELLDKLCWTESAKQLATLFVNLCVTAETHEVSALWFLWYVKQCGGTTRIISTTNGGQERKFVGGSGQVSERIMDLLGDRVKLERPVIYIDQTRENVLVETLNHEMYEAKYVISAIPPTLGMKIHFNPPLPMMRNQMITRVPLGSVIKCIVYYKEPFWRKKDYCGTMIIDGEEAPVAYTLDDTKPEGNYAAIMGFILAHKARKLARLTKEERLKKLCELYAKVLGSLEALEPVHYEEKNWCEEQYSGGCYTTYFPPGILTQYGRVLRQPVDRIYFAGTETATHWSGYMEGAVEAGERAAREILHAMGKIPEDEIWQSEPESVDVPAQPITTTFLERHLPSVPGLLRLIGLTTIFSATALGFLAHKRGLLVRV
Put plainly: Inhibition of recombinant human MAOB using kynuramine as substrate assessed as decrease in formation of 4-hydroxyquinoline incubated for 20 mins by fluorescence assay.

For data set [4], the species on record is Homo sapiens. Put plainly: Selectivity ratio of IC50 for recombinant human MAOB to IC50 for recombinant human MAOA.
In data set [5] the target is T2, Amine oxidase [flavin-containing] A. The experiment in a line: Time-dependent inhibition of recombinant human MAOA using kynuramine as substrate assessed as decrease in formation of 4-hydroxyquinoline at 2 times IC50 preincubated for 15 to 60 mins followed by substrate addition measured after 15 mins by fluorescence assay. The conditions noted are these: 0.25 h.

One may read the IC50 as the concentration that inhibits the measured activity by half. With `COC(=O)C[C@H](NC(=O)[C@H](C)NC(=O)[C@@H](NC(=O)OCc1ccccc1)C(C)C)C(=O)CF` (Cbz-Val-Ala-Asp(OMe)-CH2F), the IC50 in data set [1] stood at 40 µM.
A word on the Ki: it is a measure of affinity in units of concentration, obtained from inhibition or displacement. On to `C#CCN1C(=O)C(=O)c2cc(S(=O)(=O)N(C)Cc3cccc(F)c3)ccc21`, for which, in data set [2], the IC50 worked out at 10.7 µM and the Ki was 2.81 µM. Besides, in data set [3], the IC50 worked out at 70.6 µM and the Ki came to 30.4 µM.
As for `C#CCN1C(=O)C(=O)c2ccccc21`, the concentration for half-maximal inhibition (IC50) in data set [1] was more than 100 µM; in data set [2], 30.9 µM; in data set [3], 35.2 µM. The Ratio IC50 in data set [4] turned out to be 2.12. In addition, the Ki in data set [2] stood at 8.14 µM; in data set [3], 15.1 µM.
In the case of `C#CCN(C)[C@H](C)Cc1ccccc1` [SELEGILINE], in data set [1], the IC50 is more than 100 µM.
Turning to `C#CCN1C(=O)C(=O)c2cc(S(=O)(=O)N(C)Cc3ccc(F)cc3)ccc21`, the IC50 in data set [1] is more than 100 µM; in data set [2] it was 4.31 µM; in data set [3], more than 100 µM. Also, the Ratio IC50 in data set [4] is more than 23.9. Further, the Ki in data set [2] turned out to be 1.14 µM.
`C#CCN1C(=O)C(=O)c2cc(S(=O)(=O)N(C)Cc3ccccc3F)ccc21`: in data set [2], the IC50 came out at 9.43 µM and the inhibition constant (Ki) amounted to 2.48 µM. Besides, in data set [3], the IC50 stood at 128 µM and the Ki was determined as 55.2 µM.
Take `O=C1Nc2ccccc2C1=O` [ISATIN]: in data set [1], the IC50 was more than 100 µM.
`C#CCN(C)CCCOc1ccc(Cl)cc1Cl` [CLORGILINE]: the IC50 in data set [1] is more than 100 µM. In addition, the TDI result in data set [5] is reported as “Active”.
Regarding `CN(Cc1ccc(F)cc1)S(=O)(=O)c1ccc2c(c1)C(=O)C(=O)N2`, in data set [2], the IC50 was 8.26 µM and the Ki was 2.18 µM. In addition, in data set [3], the IC50 was found to be 5.96 µM and the Ki stood at 2.57 µM.
For `CN(Cc1cccc(F)c1)S(=O)(=O)c1ccc2c(c1)C(=O)C(=O)N2`, the IC50 in data set [2] was found to be 22.8 µM; in data set [3], 8.32 µM. Also, the Ki is 6 µM in data set [2] and 3.58 µM in data set [3].
For the compound `CN(Cc1ccccc1F)S(=O)(=O)c1ccc2c(c1)C(=O)C(=O)N2`, in data set [2], the IC50 was determined as 21.6 µM and the Ki turned out to be 5.7 µM. The IC50 in data set [3] was more than 100 µM.
